{"source": "patent US10434142B2", "about": "“Compositions and methods of improved wound healing” (Chan Soon-Shiong Nanthealth Foundation, priority 2013, dated 2019)", "key": {"[1]": {"test_system": "human THP-1 promonocytic leukemia cell line", "assay": "IL-8 production / cytokine release from THP-1 cells, TLR2 ligand with or without calcium flux agonist", "format": "cell-based", "conditions": "suboptimal dose of TLR2 ligand (Pam2CSK4 / Pam2CYS) plus suboptimal dose of agonist; beyond cumulative individual responses", "protocol": "(§1) For example, human promonocytic THP-1 cells were incubated in the presence or absence of a suboptimal dose of the TLR2 ligand Pam2CSK4 and compared to similarly treated cells which also received suboptimal doses of ionophore (here: A23187 and ionomycin). […] In another example, KB-LUC THP-1 cells (a THP-1-derived transfectant line harboring an NF-κB-driven luciferase expression cassette) were cultivated in the presence or absence of a suboptimal dose of the TLR2 ligand Pam2CSK4 and compared to similarly treated cells that also received suboptimal doses of various SERCA inhibitors.\nHere, the ionophores A23187 and ionomycin, as well as the SERCA inhibitor thapsigargin synergize with the TLR2 ligand (Pam2CYS) in the activation of cytokine release from the human THP-1 promonocytic leukemia cell line. It should be especially noted that while the TLR2 ligand alone provided for about 5 ng/ml IL-8 response, addition of a suboptimal dose of the calcium flux agonists (e.g. 20 nM for thapsigargin, 316 nM for A23187, and 1 μM for ionomycin) produced more than 10-fold quantities of IL-8 production in the cells."}, "TLR2": {"test_system": "TLR2", "assay": "IL-8 production, calcium flux agonist plus TLR2 ligand (FIGS. 2A-2E)", "format": "cell-based", "conditions": "suboptimal doses: 20 nM thapsigargin, 316 nM A23187, 1 μM ionomycin, 10 μM cyclopiazonic acid, 31.6 μM DBHQ", "protocol": "(§2) To investigate if that observation was also true for other pattern recognition receptors, and especially for TLR and NOD receptors and other ligands, the inventors tested numerous TLR and NOD receptors and various ligands.\n(§3) The doses used in this experiment were 20 nM for thapsigargin, 316 nM for A23187, 1 μM for ionomycin, 10 μM for cyclopiazonic acid, and 31.6 μM for DBHQ.\n(§4) Thus, a clear pattern of adjuvant activity of calcium flux agonists on the immune response, and especially on IL-8 production and NF-κB signaling is evident where the immune response is associated with a TLR- or NOD-mediated event."}, "TLR4": {"test_system": "TLR4", "assay": "IL-8 production, calcium flux agonist plus TLR4 ligand (FIGS. 2A-2E)", "format": "cell-based", "conditions": "suboptimal doses: 20 nM thapsigargin, 316 nM A23187, 1 μM ionomycin, 10 μM cyclopiazonic acid, 31.6 μM DBHQ", "protocol": "as §2, §3, §4"}, "TLR5": {"test_system": "TLR5", "assay": "IL-8 production, calcium flux agonist plus TLR5 ligand (FIGS. 2A-2E)", "format": "cell-based", "conditions": "suboptimal doses: 20 nM thapsigargin, 316 nM A23187, 1 μM ionomycin, 10 μM cyclopiazonic acid, 31.6 μM DBHQ", "protocol": "as §2, §3, §4"}, "TLR9": {"test_system": "TLR9", "assay": "IL-8 production, calcium flux agonist plus TLR9 ligand (FIGS. 2A, 2B, 2E)", "format": "cell-based", "conditions": "suboptimal doses: 20 nM thapsigargin, 316 nM A23187, 1 μM ionomycin", "protocol": "as §2, §3, §4"}, "NOD1": {"test_system": "NOD1", "assay": "IL-8 production, calcium flux agonist plus NOD1 ligand (FIGS. 2A-2E)", "format": "cell-based", "conditions": "suboptimal doses: 20 nM thapsigargin, 316 nM A23187, 1 μM ionomycin, 10 μM cyclopiazonic acid, 31.6 μM DBHQ", "protocol": "as §2, §3, §4"}, "NOD2": {"test_system": "NOD2", "assay": "IL-8 production, calcium flux agonist plus NOD2 ligand (FIGS. 2A-2E)", "format": "cell-based", "conditions": "suboptimal doses: 20 nM thapsigargin, 316 nM A23187, 1 μM ionomycin, 10 μM cyclopiazonic acid, 31.6 μM DBHQ", "protocol": "as §2, §3, §4"}, "κB-LUC THP-1 cells": {"test_system": "κB-LUC THP-1 cells", "assay": "Activation of κB-LUC THP-1 cells by S. aureus conditioned/spent media (FIGS. 3A-3C)", "format": "cell-based, human", "conditions": "for recognition of S. aureus conditioned/spent media (activation of κB-LUC THP-1 cells): suboptimal doses: thapsigargin, 316 nM A23187, 1 μM ionomycin"}, "KB-LUC THP-1 cells": {"test_system": "KB-LUC THP-1 cells", "assay": "NF-κB-driven luciferase in KB-LUC THP-1 cells, TLR2 ligand Pam2CSK4 with or without SERCA inhibitor", "format": "cell-based, human", "conditions": "suboptimal dose of Pam2CSK4 plus suboptimal dose of SERCA inhibitor; beyond cumulative individual responses", "protocol": "as §1"}}, "note": "“Also recorded” adds a separate entry of the source."}
{"smiles": "CNc1ccc2oc(C[C@H]3O[C@@]4(CC[C@H]3C)O[C@H]([C@H](C)C(=O)c3ccc[nH]3)[C@H](C)C[C@H]4C)nc2c1C(=O)O", "note": "[A23187]", "values": [{"measurement": "synergy with TLR2 ligand in IL-8 production / cytokine release", "setting": "[1]", "value": "significantly increased; also recorded: synergize"}, {"measurement": "synergistic effect to augment cellular response (IL-8 production) for TLR2", "setting": "TLR2", "value": "synergistic effect"}, {"measurement": "synergistic effect to augment cellular response (IL-8 production) for TLR4", "setting": "TLR4", "value": "synergistic effect"}, {"measurement": "synergistic effect to augment cellular response (IL-8 production) for TLR5", "setting": "TLR5", "value": "synergistic effect"}, {"measurement": "synergistic effect to augment cellular response (IL-8 production) for TLR9", "setting": "TLR9", "value": "synergistic effect"}, {"measurement": "synergistic effect to augment cellular response (IL-8 production) for NOD1", "setting": "NOD1", "value": "synergistic effect"}, {"measurement": "synergistic effect to augment cellular response (IL-8 production) for NOD2", "setting": "NOD2", "value": "synergistic effect"}, {"measurement": "recognition of S. aureus conditioned/spent media (activation of κB-LUC THP-1 cells)", "setting": "κB-LUC THP-1 cells", "value": "significantly enhanced"}]}
{"smiles": "CC(C)(C)c1cc(O)c(C(C)(C)C)cc1O", "note": "[DBHQ, 2,5-di(tert-butyl) hydroquinone]", "values": [{"measurement": "synergistic effect to augment cellular response (IL-8 production) for TLR2", "setting": "TLR2", "value": "synergistic effect"}, {"measurement": "synergistic effect to augment cellular response (IL-8 production) for TLR4", "setting": "TLR4", "value": "synergistic effect"}, {"measurement": "synergistic effect to augment cellular response (IL-8 production) for TLR5", "setting": "TLR5", "value": "synergistic effect"}, {"measurement": "synergistic effect to augment cellular response (IL-8 production) for NOD1", "setting": "NOD1", "value": "synergistic effect"}, {"measurement": "synergistic effect to augment cellular response (IL-8 production) for NOD2", "setting": "NOD2", "value": "synergistic effect"}]}
{"smiles": "O=C(O)CN(CCOCCOCCN(CC(=O)O)CC(=O)O)CC(=O)O", "note": "[EGTA]", "values": [{"measurement": "effect on calcium flux-induced synergy", "setting": "κB-LUC THP-1 cells; extracellular chelator added at 1 mM", "value": "inhibited"}]}
{"smiles": "C[C@H](CCC(=O)O)C[C@H](C)C[C@H](C)C(=O)/C=C(\\O)[C@H](C)C[C@H](C)C/C=C/[C@@H](C)[C@@H](O)[C@@H](C)[C@@H](O)C[C@@H]1CC[C@@](C)([C@H]2CC[C@@](C)([C@@H](C)O)O2)O1", "note": "[ionomycin]", "values": [{"measurement": "synergy with TLR2 ligand in IL-8 production / cytokine release", "setting": "[1]", "value": "significantly increased; also recorded: synergize"}, {"measurement": "synergistic effect to augment cellular response (IL-8 production) for TLR2", "setting": "TLR2", "value": "synergistic effect"}, {"measurement": "synergistic effect to augment cellular response (IL-8 production) for TLR4", "setting": "TLR4", "value": "synergistic effect"}, {"measurement": "synergistic effect to augment cellular response (IL-8 production) for TLR5", "setting": "TLR5", "value": "synergistic effect"}, {"measurement": "synergistic effect to augment cellular response (IL-8 production) for TLR9", "setting": "TLR9", "value": "synergistic effect"}, {"measurement": "synergistic effect to augment cellular response (IL-8 production) for NOD1", "setting": "NOD1", "value": "synergistic effect"}, {"measurement": "synergistic effect to augment cellular response (IL-8 production) for NOD2", "setting": "NOD2", "value": "synergistic effect"}, {"measurement": "recognition of S. aureus conditioned/spent media (activation of κB-LUC THP-1 cells)", "setting": "κB-LUC THP-1 cells", "value": "significantly enhanced"}]}
{"smiles": "C/C=C(/C)C(=O)O[C@H]1C(C)=C2[C@H]([C@@H]1OC(=O)CCCCCCC)[C@@](C)(OC(C)=O)C[C@H](OC(=O)CCC)[C@@]1(O)[C@H]2OC(=O)[C@@]1(C)O", "note": "[thapsigargin]", "values": [{"measurement": "synergy with TLR2 ligand in IL-8 production / cytokine release", "setting": "[1]", "value": "synergize"}, {"measurement": "amount of luciferase produced (NF-κB-driven), synergy with TLR2 ligand", "setting": "KB-LUC THP-1 cells", "value": "significantly increased"}, {"measurement": "synergistic effect to augment cellular response (IL-8 production) for TLR2", "setting": "TLR2", "value": "synergistic effect"}, {"measurement": "synergistic effect to augment cellular response (IL-8 production) for TLR4", "setting": "TLR4", "value": "synergistic effect"}, {"measurement": "synergistic effect to augment cellular response (IL-8 production) for TLR5", "setting": "TLR5", "value": "synergistic effect"}, {"measurement": "synergistic effect to augment cellular response (IL-8 production) for TLR9", "setting": "TLR9", "value": "synergistic effect"}, {"measurement": "synergistic effect to augment cellular response (IL-8 production) for NOD1", "setting": "NOD1", "value": "synergistic effect"}, {"measurement": "synergistic effect to augment cellular response (IL-8 production) for NOD2", "setting": "NOD2", "value": "synergistic effect"}, {"measurement": "recognition of S. aureus conditioned/spent media (activation of κB-LUC THP-1 cells)", "setting": "κB-LUC THP-1 cells", "value": "significantly enhanced"}]}
